Measurements from patent US9873724B2, “Pro-angiogenic peptides and peptide conjugates” (Yissum Research Development Company of the Hebrew …, priority 2013, dated 2018).
“And” between values parts separate entries of the source, which are not always exact repeats. Identical values can stand only once. Square brackets hold non-standard residues; d marks the D form. Ends that are not written are not given here. * marks the point of attachment. fluorescein = fluorescein moiety coupled to a lysine residue (K-Flu); Tyr(3,5-I2) = N[C@@H](Cc1cc(I)c(O)c(I)c1)C(=O)O; Phe(4-Br) = N[C@@H](Cc1ccc(Br)cc1)C(=O)O; hArg = N=C(N)NCCCC[C@H](N)C(=O)O; Myristoyl = CCCCCCCCCCCCCC(=O)*; Lauroyl = CCCCCCCCCCCC(=O)*; Decanoyl = CCCCCCCCCC(=O)*; Nle = CCCC[C@H](N)C(=O)O; Octanoyl = CCCCCCCC(=O)*; Hexanoyl = CCCCCC(=O)*

How the values were obtained:
[1] = tested on: Mice/Balb/c, hind limb ischemia model; experiment: Mouse hind limb ischemia/angiogenesis model; type: in vivo; settings: 20 mg/kg IP twice weekly
Text: The object of this study was to determine whether administration of the test items, peptides AB-017 (SEQ ID NO: 12) and 725-106 (positive control, SEQ ID NO: 2) can enhance angiogenesis, subsequently inducing clinical and motor function improvement in a hind limb ischemia model. The principle of the test is based on changes in perfusion rate, clinical signs and histological parameters (necrosis) following administration of the test compounds.
Each tested group included 4-7 mice per group. Intraperitoneal (i.p) injection is the preferred route of administration of the test items in this model and DMSO/PEG is used as vehicle to prepare the test item solution.
Tested peptides were dissolved in 100% DMSO. Thereafter Polyethylene glycol (PEG) 400 is added to the solution. Sterile water was used to dilute to a final concentration of 0.5% DMSO/10% PEG 400/H2O to result 2 mg/ml. The solution is prepared and divided into marked aliquots and stored at −70° C.
Species/Strain: Mice/Balb/c male˜8 weeks
Animals were housed under standard laboratory conditions, air conditioned and filtered (HEPA F6/6) with adequate fresh air supply (31 air changes/hour). Animals were kept in a climate controlled environment. Temperatures range is between 20-24° C. and RH is between 30-70% with 12 hours light and 12 hours dark cycle. Animals were housed in polyethylene cages (7/cage) measuring 35×30×15 cm, with stainless steel top grill facilitating pelleted food and drinking water in plastic bottle; bedding: steam sterilized clean paddy husk. Bedding material is changed along with the cage at least twice a week. Diet: Animals are fed ad libitum a commercial rodent diet (Teklad Certified Global 18% Protein Diet cat #: 106S8216). Animals have free access to drinking water obtained from the municipality supply. Surgical Procedure: Anesthesia: Isoflurane 1.5-3% in a mixture of O2/N2O, under spontaneous respiration. All four limbs of the animal were taped down in order to facilitate the animal for surgery. Both hind legs of the animals are shaved and disinfected. On the operated leg, the right leg in all animals, an incision was made from the inguinal area to the proximity of the knee. The femoral vein/artery/nerve were exposed. The artery is dissected free from the vein, nerve and surrounding fascia. Distal to its bifurcation with the profound femoral artery, using 6-0 silk suture the artery is ligated twice, and thereafter transected between these two points (see prox-A-group model appendix I). The surgical wound is closed with 6-0 silk and the mouse is returned to its cage. The left leg is untreated control in all animals. Exclusion criteria: Only mice, whose mean flux measurement post surgery is […] and ≦50% of the pre surgical measurement, are incorporated into the study. Mice whose mean flux measurement post surgery out of this range were excluded from the study.
[formula] Drug administration: All animals were dosed by IP administration at a dose volume of 10 ml/kg.
Tests and Evaluation: Body weight: Body weights were measured prior to surgery, prior to each dosing, and prior to necropsy. Blood flow measurement: Using a Laser Doppler apparatus (Perimed PeriScan PIM II System, Technical manual available at test facility) Blood flow was measured (operated leg & control leg) while the legs are in their natural resting position at the following time points: Before surgery (after shaving) & Post surgery (Day 0); Day 1; Day 8; Day 15; Day 22; and Day 29. Each time point for each mouse consists of three measurements. Blood flow was measured, additionally, in first 10 animals at Pre before shaving. […]

mouse aortic rings = experiment: Aortic ring assay ex-vivo (capillary sprouting from mouse aortic rings in collagen; repeated with VEGF); type: cell-based; design: Capillary length 10 μM (10 μM) / Capillary length 20 μM / Capillary length 10 μM: unit not given here; settings: for Capillary length 10 μM (10 μM) / Capillary length 10 μM: peptide 10 μM; for Capillary length 10 μM (10 μM) / Capillary length 20 μM / Capillary length 10 μM: rings fixed after two weeks; for Capillary length 20 μM: peptide 20 μM; for effect of peptide together with VEGF (in words): 10 μM peptide with VEGF; for Average capillary length / Fold vs vehicle: 10 μM peptide, alone or together with VEGF; for capillary / vessel formation (in words): aortic ring assay, FIGS. 1A-1C and 2A-2C; for Fold vs vehicle: capillary length
Experimental: Thoracic aortas were dissected from 7- to 8-week-old male SABRA mice. The aortas were immediately transferred to Petri dishes containing BIO-MPM-1. The adventitia and small vessels around the aorta were carefully removed under a dissecting microscope, and transverse cuts of 0.75 mm were made. The resulting aortic rings were extensively rinsed and incubated overnight in BIO-MPM-1 containing penicillin-streptomycin. Subsequently, the rings were embedded in 50 μl collagen mix (7 parts collagen, 1 part 10× Eagle minimal essential medium, MEM, and 2 parts 0.15 M sodium bicarbonate) in 96-well plates (Nunc, Rochester, N.Y.). Solidification of the collagen solution was achieved by raising the pH to neutral and the temperature to 37° C. 150 μl BIO-MPM-1 containing penicillin-streptomycin and the tested factors or peptides) was added to the embedded rings, and the plates were incubated at 37° C. in a humidified 10% CO2 atmosphere. Medium containing factors and/or peptides was refreshed at days 4 and 8. After two weeks, the rings were fixed with 4% formaldehyde for 24 hours, followed by staining with crystal violet (0.02%) dissolved in ethanol and extensive washing to remove excessive stain. The effect of factors and peptides was examined in 4 wells (4 rings of mouse aortic rings) per assay. Micrographs of representative rings were taken using a digital camera (Nikon, Tokyo, Japan). Morphometric analysis of sprouting was performed manually using Image-Pro 4.5 software (Media Cybernetics, Silver Spring, Md.) according to Nissanov et al. (Lab Invest. 1995; 73:734-739). Nonstained rings were subjected to paraffin sections and hematoxylin and eosin (H&E) staining.
FIGS. 1A-1C represents aortic ring capillary length and FIGS. 2A-2C aortic ring capillary width. In the table: K-Flu is a Lysine residue coupled with a fluorescein moiety, 4BrPhe is 4-bromo-Phenylalanine, Dod is Dodecanoyl, Dec designates Decanoyl, Oct is Octanoyl, and Hex is Hexanoyl.
The aortic ring assay was repeated in the presence of 10 μM concentration of peptides AB-033 (SEQ ID NO: 13) and AB-034 (SEQ ID NO: 14) together with the pro-angiogenetic protein VEGF.

725-106: Previously disclosed EDG3 peptide, positive control; Table 2: Myr-Gly, Nle, Arg, Pro, Tyr, Asn, Ala, NH2 (Myristoyl-G[Nle]RPYNA-NH2; SMILES CCCCCCCCCCCCCC(=O)NCC(=O)N[C@@H](CCCC)C(=O)N[C@@H](CCCNC(=N)N)C(=O)N1CCC[C@H]1C(=O)N[C@@H](Cc1ccc(O)cc1)C(=O)N[C@@H](CC(N)=O)C(=O)N[C@@H](C)C(N)=O) [Peptide 725-106, reference compound]
Functional evaluation at day 15 (individual mouse) ([1]; function score 0 (flexing the toes) to 3 (dragging of foot), one value per mouse): 3.0 | Hind limb ischemia evaluation at day 15, Average ([1]; group average of ischemic score): 2.4 | Hind limb ischemia evaluation at day 15 (individual mouse) ([1]; ischemic score 0 (absence of necrosis) to 4 (total hind-limb loss), one value per mouse, listed as 106): 2.0 (2×) and 3.0 and 2.5 | Capillary length 10 μM (10 μM) (mouse aortic rings): 7,000 | Capillary length 20 μM (mouse aortic rings): 4,600

AB-011: Table 2: Myr-Gly, Nle, Arg, Pro, Tyr, Asn, Ala, K-Flu (lysine coupled with fluorescein), NH2 (Myristoyl-G[Nle]RPYNAK(fluorescein)-NH2)
Capillary length 10 μM (10 μM) (mouse aortic rings): 2500 | Capillary length 20 μM (mouse aortic rings): 5000

AB-013: Table 2: Myr-Gly, Nle, Arg, Pro, Tyr, Asn, DAla, NH2 (Myristoyl-G[Nle]RPYN[dA]-NH2; SMILES CCCCCCCCCCCCCC(=O)NCC(=O)N[C@@H](CCCC)C(=O)N[C@@H](CCCNC(=N)N)C(=O)N1CCC[C@H]1C(=O)N[C@@H](Cc1ccc(O)cc1)C(=O)N[C@@H](CC(N)=O)C(=O)N[C@H](C)C(N)=O)
Capillary length 10 μM (10 μM) (mouse aortic rings): 8700 | Capillary length 20 μM (mouse aortic rings): 900

AB-015: Table 2: Acetyl-Gly-, Arg, Pro, Tyr, NH2 (Ac-GRPY-NH2)
Capillary length 10 μM (10 μM) (mouse aortic rings): 1,000 | Capillary length 20 μM (mouse aortic rings): 1,700

AB-018: Table 2: Myr-Gly, Nle, Arg, Pro, Tyr, Asn, NH2 (Myristoyl-G[Nle]RPYN-NH2; SMILES CCCCCCCCCCCCCC(=O)NCC(=O)N[C@@H](CCCC)C(=O)N[C@@H](CCCNC(=N)N)C(=O)N1CCC[C@H]1C(=O)N[C@@H](Cc1ccc(O)cc1)C(=O)N[C@@H](CC(N)=O)C(N)=O)
Capillary length 10 μM (10 μM) (mouse aortic rings): 12,600 | Capillary length 20 μM (mouse aortic rings): 10,200

AB-020: Table 2: Dod-Gly (Dodecanoyl), Nle, Arg, Pro, Tyr (Lauroyl-G[Nle]RPY)
Capillary length 10 μM (mouse aortic rings): 5,600 | Capillary length 10 μM (10 μM) (mouse aortic rings): 1,900 | Capillary length 20 μM (mouse aortic rings): 2,700

AB-021: Table 2: Dec-Gly (Decanoyl), Nle, Arg, Pro, Tyr (Decanoyl-G[Nle]RPY)
Capillary length 10 μM (mouse aortic rings): 3,940 | Capillary length 10 μM (10 μM) (mouse aortic rings): 590 | Capillary length 20 μM (mouse aortic rings): 3,200

AB-022: Table 2: Oct-Gly (Octanoyl), Nle, Arg, Pro, Tyr (Octanoyl-G[Nle]RPY)
Capillary length 10 μM (mouse aortic rings): 2,170 | Capillary length 10 μM (10 μM) (mouse aortic rings): 380 | Capillary length 20 μM (mouse aortic rings): 1,700

AB-023: Table 2: Hex-Gly (Hexanoyl), Nle, Arg, Pro, Tyr (Hexanoyl-G[Nle]RPY)
Capillary length 10 μM (mouse aortic rings): 1,700 | Capillary length 10 μM (10 μM) (mouse aortic rings): 430 | Capillary length 20 μM (mouse aortic rings): 320

AB-031: Table 2: Myr-Gly, Nle, Arg, Pro, 4BrPhe (Myristoyl-G[Nle]RP[Phe(4-Br)])
Capillary length 10 μM (mouse aortic rings): 1,840

Myr-Gly-Arg-Pro-Tyr-NH2 (Myristoyl-GRPY-NH2; SMILES CCCCCCCCCCCCCC(=O)NCC(=O)N[C@@H](CCCNC(=N)N)C(=O)N1CCC[C@H]1C(=O)N[C@@H](Cc1ccc(O)cc1)C(N)=O) [AB-016]
Capillary length 10 μM (10 μM) (mouse aortic rings): 8,700 | Capillary length 20 μM (mouse aortic rings): 14,500

Myr-Gly-Nle-Arg-Pro-35dITyr-NH2 (Myristoyl-G[Nle]RP[Tyr(3,5-I2)]-NH2; SMILES CCCCCCCCCCCCCC(=O)NCC(=O)N[C@@H](CCCC)C(=O)N[C@@H](CCCNC(=N)N)C(=O)N1CCC[C@H]1C(=O)N[C@@H](Cc1cc(I)c(O)c(I)c1)C(N)=O) [AB-033]
effect of peptide together with VEGF (in words) (mouse aortic rings): synergistic effect | Average capillary length (mouse aortic rings): 4941 | capillary / vessel formation (in words) (mouse aortic rings): induce massive capillary formation | Fold vs vehicle (mouse aortic rings): 3.6 | Capillary length 10 μM (10 μM) (mouse aortic rings): 3,570 | Capillary length 20 μM (mouse aortic rings): 3,800

Myr-Gly-Nle-hArg-Pro-Tyr-NH2 (Myristoyl-G[Nle][hArg]PY-NH2; SMILES CCCCCCCCCCCCCC(=O)NCC(=O)N[C@@H](CCCC)C(=O)N[C@@H](CCCCNC(=N)N)C(=O)N1CCC[C@H]1C(=O)N[C@@H](Cc1ccc(O)cc1)C(N)=O) [AB-034]
effect of peptide together with VEGF (in words) (mouse aortic rings): synergistic effect | Average capillary length (mouse aortic rings): 3062 | capillary / vessel formation (in words) (mouse aortic rings): induce massive capillary formation | Fold vs vehicle (mouse aortic rings): 2.2 | Capillary length 10 μM (mouse aortic rings): 9,700 | Capillary length 10 μM (10 μM) (mouse aortic rings): 9,570 | Capillary length 20 μM (mouse aortic rings): 10,780

VEGF
Average capillary length (mouse aortic rings): 3221 | Fold vs vehicle (mouse aortic rings): 2.4
